According to the NIST ThermoML archive (doi:10.1021/acs.jced.5b00242):
± gives the expanded uncertainty stated by the source.

Experiments:
[1] = refractive index (Na D-line) (dimensionless); xn = mol fraction of the nth substance listed; details: 101 kPa, Liquid, Standard Abbe refractometry
[2] = xn = mol fraction of the nth substance listed; details: 101 kPa, Liquid; for mass density: Vibrating tube method

CC[n+]1ccn(C)c1.N[C@@H](CO)C(=O)[O-] [3-ethyl-1-methyl-1H-imidazolium L-serinate] + CCn1cc[n+](C)c1.N#C[C-](C#N)C#N
Details	mass density, x2 = 0 [kg/m3]	mass density, x2 = 0.2502 [kg/m3]	mass density, x2 = 0.5005 [kg/m3]	mass density, x2 = 0.7497 [kg/m3]	refractive index, x2 = 0	refractive index, x2 = 0.2502	refractive index, x2 = 0.5005	refractive index, x2 = 0.7497
[1], 293.15 K	–	–	–	–	1.52699 ± 0.0041	1.52075 ± 0.0011	1.51865 ± 0.00078	1.51552 ± 0.001
[1], 298.15 K	–	–	–	–	1.52565 ± 0.0041	1.51929 ± 0.0011	1.51718 ± 0.00078	1.5139 ± 0.001
[1], 303.15 K	–	–	–	–	1.52429 ± 0.0041	1.51784 ± 0.0011	1.51563 ± 0.00078	1.51228 ± 0.001
[1], 308.15 K	–	–	–	–	1.52294 ± 0.0041	1.51636 ± 0.0011	1.51409 ± 0.00078	1.51064 ± 0.001
[1], 313.15 K	–	–	–	–	1.52159 ± 0.0041	1.51489 ± 0.0011	1.51254 ± 0.00078	1.50899 ± 0.001
[1], 318.15 K	–	–	–	–	1.52022 ± 0.0041	1.51343 ± 0.0011	1.51099 ± 0.00078	1.50736 ± 0.001
[1], 323.15 K	–	–	–	–	1.51887 ± 0.0041	1.51199 ± 0.0011	1.50943 ± 0.00078	1.50574 ± 0.001
[1], 328.15 K	–	–	–	–	1.51755 ± 0.0041	1.51051 ± 0.0011	1.50784 ± 0.00078	1.50408 ± 0.001
[1], 333.15 K	–	–	–	–	1.5162 ± 0.0041	1.50902 ± 0.0011	1.50632 ± 0.00078	1.50253 ± 0.001
[1], 338.15 K	–	–	–	–	1.51486 ± 0.0041	1.50755 ± 0.0011	1.50475 ± 0.00078	1.50093 ± 0.001
[1], 343.15 K	–	–	–	–	1.51353 ± 0.0041	1.50611 ± 0.0011	1.50324 ± 0.00078	1.49932 ± 0.001
[1], 348.15 K	–	–	–	–	1.5122 ± 0.0041	1.50459 ± 0.0011	1.50173 ± 0.00078	1.49774 ± 0.001
[1], 353.15 K	–	–	–	–	1.51084 ± 0.0041	1.50318 ± 0.0011	1.50018 ± 0.00078	1.49615 ± 0.001
[2], 293.15 K	1206.8 ± 18	1177.2 ± 17	1141.8 ± 16	1112.9 ± 16	–	–	–	–
[2], 298.15 K	1203.7 ± 18	1173.6 ± 17	1138.4 ± 16	1109.3 ± 16	–	–	–	–
[2], 303.15 K	1200.5 ± 18	1170.1 ± 17	1135 ± 16	1105.8 ± 16	–	–	–	–
[2], 308.15 K	1197.3 ± 18	1166.8 ± 17	1131.7 ± 16	1102.3 ± 16	–	–	–	–
[2], 313.15 K	1194 ± 18	1163.5 ± 17	1128.4 ± 16	1098.9 ± 16	–	–	–	–
[2], 318.15 K	1190.9 ± 18	1160.5 ± 17	1125.1 ± 16	1095.6 ± 15	–	–	–	–
[2], 323.15 K	1187.8 ± 18	1157.3 ± 17	1121.8 ± 16	1092.2 ± 15	–	–	–	–
[2], 328.15 K	1184.7 ± 18	1154 ± 17	1118.5 ± 16	1088.9 ± 15	–	–	–	–
[2], 333.15 K	1181.7 ± 18	1150.8 ± 17	1115.1 ± 16	1085.6 ± 15	–	–	–	–
[2], 338.15 K	1178.7 ± 18	1147.6 ± 17	1111.9 ± 16	1082.2 ± 15	–	–	–	–
[2], 343.15 K	1175.7 ± 18	1144.4 ± 17	1108.6 ± 16	1078.9 ± 15	–	–	–	–
[2], 348.15 K	1172.8 ± 18	1141.2 ± 17	1105.2 ± 16	1075.7 ± 15	–	–	–	–
[2], 353.15 K	1169.7 ± 18	1138 ± 17	1101.8 ± 16	1072.3 ± 15	–	–	–	–

viscosity [mPa·s], [2], Stabinger Viscometer
Details	x2 = 0	x2 = 0.2502	x2 = 0.5005	x2 = 0.7497
293.15 K	3796.8 ± 560	586.84 ± 75	168.52 ± 9.8	42.01 ± 1.1
298.15 K	2235.5 ± 290	384.17 ± 46	120.68 ± 6.2	33.37 ± 0.85
303.15 K	1376.2 ± 160	261.07 ± 30	88.95 ± 4.2	26.98 ± 0.69
308.15 K	882.82 ± 88	183.69 ± 20	67.28 ± 3	22.2 ± 0.57
313.15 K	588.27 ± 51	133.41 ± 14	52.28 ± 2.3	18.36 ± 0.47
318.15 K	405.12 ± 30	98.94 ± 10	41.25 ± 1.8	15.72 ± 0.4
323.15 K	287.6 ± 18	75.39 ± 7.8	33.28 ± 1.5	13.48 ± 0.34
328.15 K	209.91 ± 11	58.75 ± 6	27.29 ± 1.2	11.68 ± 0.3
333.15 K	157.29 ± 7.5	46.9 ± 4.8	22.78 ± 1	10.07 ± 0.26
338.15 K	119.86 ± 5	37.79 ± 3.9	19.18 ± 0.85	9.03 ± 0.23
343.15 K	93.36 ± 3.5	31.01 ± 3.2	16.37 ± 0.73	8.03 ± 0.21
348.15 K	74.03 ± 2.5	25.75 ± 2.6	14.12 ± 0.63	7.19 ± 0.18
353.15 K	59.91 ± 1.9	21.14 ± 2.2	12.31 ± 0.55	6.36 ± 0.16

CCn1cc[n+](C)c1.NCC(=O)[O-] [1-ethyl-3-methylimidazolium ammonioacetate] + CCn1cc[n+](C)c1.N#C[C-](C#N)C#N
Details	mass density, x2 = 0 [kg/m3]	mass density, x2 = 0.2498 [kg/m3]	mass density, x2 = 0.5001 [kg/m3]	mass density, x2 = 0.7501 [kg/m3]	refractive index, x2 = 0	refractive index, x2 = 0.2498	refractive index, x2 = 0.5001	refractive index, x2 = 0.7501
[1], 293.15 K	–	–	–	–	1.52134 ± 0.00087	1.52032 ± 0.00096	1.51815 ± 0.00089	1.51562 ± 0.00083
[1], 298.15 K	–	–	–	–	1.51997 ± 0.00087	1.51892 ± 0.00096	1.51656 ± 0.00089	1.51399 ± 0.00083
[1], 303.15 K	–	–	–	–	1.5186 ± 0.00087	1.51743 ± 0.00096	1.51505 ± 0.00089	1.51238 ± 0.00083
[1], 308.15 K	–	–	–	–	1.51724 ± 0.00087	1.51596 ± 0.00096	1.51355 ± 0.00089	1.5108 ± 0.00083
[1], 313.15 K	–	–	–	–	1.51585 ± 0.00087	1.51457 ± 0.00096	1.51205 ± 0.00089	1.50922 ± 0.00083
[1], 318.15 K	–	–	–	–	1.5145 ± 0.00087	1.51315 ± 0.00096	1.51057 ± 0.00089	1.50764 ± 0.00083
[1], 323.15 K	–	–	–	–	1.51313 ± 0.00087	1.51173 ± 0.00096	1.50908 ± 0.00089	1.50609 ± 0.00083
[1], 328.15 K	–	–	–	–	1.51179 ± 0.00087	1.51031 ± 0.00096	1.5076 ± 0.00089	1.50449 ± 0.00083
[1], 333.15 K	–	–	–	–	1.51041 ± 0.00087	1.5089 ± 0.00096	1.50613 ± 0.00089	1.50295 ± 0.00083
[1], 338.15 K	–	–	–	–	1.50904 ± 0.00087	1.50751 ± 0.00096	1.50462 ± 0.00089	1.50143 ± 0.00083
[1], 343.15 K	–	–	–	–	1.50769 ± 0.00087	1.50614 ± 0.00096	1.50315 ± 0.00089	1.49987 ± 0.00083
[1], 348.15 K	–	–	–	–	1.50637 ± 0.00087	1.50472 ± 0.00096	1.5017 ± 0.00089	1.49834 ± 0.00083
[1], 353.15 K	–	–	–	–	1.50495 ± 0.00087	1.50334 ± 0.00096	1.50021 ± 0.00089	1.49682 ± 0.00083
[2], 293.15 K	1164.3 ± 15	1140.2 ± 14	1118.4 ± 14	1101.2 ± 13	–	–	–	–
[2], 298.15 K	1161.2 ± 15	1136.9 ± 14	1115 ± 14	1097.8 ± 13	–	–	–	–
[2], 303.15 K	1158.1 ± 14	1133.7 ± 14	1111.7 ± 14	1094.4 ± 13	–	–	–	–
[2], 308.15 K	1155 ± 14	1130.5 ± 14	1108.4 ± 14	1091 ± 13	–	–	–	–
[2], 313.15 K	1152 ± 14	1127.3 ± 14	1105.2 ± 13	1087.7 ± 13	–	–	–	–
[2], 318.15 K	1149 ± 14	1124.3 ± 14	1102.1 ± 13	1084.4 ± 13	–	–	–	–
[2], 323.15 K	1146 ± 14	1121.1 ± 14	1098.9 ± 13	1081 ± 13	–	–	–	–
[2], 328.15 K	1143 ± 14	1118 ± 14	1095.7 ± 13	1077.7 ± 13	–	–	–	–
[2], 333.15 K	1139.9 ± 14	1114.8 ± 14	1092.5 ± 13	1074.5 ± 13	–	–	–	–
[2], 338.15 K	1136.9 ± 14	1111.7 ± 14	1089.3 ± 13	1071.2 ± 13	–	–	–	–
[2], 343.15 K	1133.8 ± 14	1108.6 ± 14	1086.1 ± 13	1068 ± 13	–	–	–	–
[2], 348.15 K	1130.7 ± 14	1105.5 ± 14	1082.9 ± 13	1064.7 ± 13	–	–	–	–
[2], 353.15 K	1127.4 ± 14	1102.4 ± 14	1079.7 ± 13	1061.5 ± 13	–	–	–	–

viscosity [mPa·s], [2], Stabinger viscometer
Details	x2 = 0	x2 = 0.2498	x2 = 0.5001	x2 = 0.7501
293.15 K	240.18 ± 14	94.03 ± 4.5	53.98 ± 5.5	29.05 ± 0.72
298.15 K	171.97 ± 8.2	70.85 ± 3.2	42.14 ± 4.3	23.45 ± 0.58
303.15 K	126.19 ± 5.1	54.7 ± 2.4	33.55 ± 3.4	19.43 ± 0.48
308.15 K	95.04 ± 3.3	43.19 ± 1.9	27.19 ± 2.8	16.35 ± 0.41
313.15 K	73.5 ± 2.3	34.81 ± 1.5	22.25 ± 2.3	13.9 ± 0.34
318.15 K	57.66 ± 1.6	28.43 ± 1.3	18.69 ± 1.9	12.02 ± 0.3
323.15 K	46.21 ± 1.4	23.59 ± 1.1	15.89 ± 1.6	10.47 ± 0.26
328.15 K	37.66 ± 1.1	19.87 ± 0.88	13.84 ± 1.4	9.21 ± 0.23
333.15 K	31.24 ± 0.91	16.92 ± 0.75	11.88 ± 1.2	8.12 ± 0.2
338.15 K	26.08 ± 0.76	14.58 ± 0.65	10.47 ± 1.1	7.29 ± 0.18
343.15 K	22.11 ± 0.65	12.67 ± 0.56	9.233 ± 0.94	6.55 ± 0.16
348.15 K	18.95 ± 0.55	11.1 ± 0.49	8.191 ± 0.83	5.92 ± 0.15
353.15 K	16.45 ± 0.48	9.77 ± 0.43	7.189 ± 0.73	5.35 ± 0.13
